The text below walks through data of PubChem BioAssay AID2305 (GlaxoSmithKline (GSK), 2010).

In this assay the test system is P. falciparum 3D7 growth, pLDH absorbance. Nature of the assay: P. falciparum 3D7 growth inhibition, dose response, strain 3D7 (AID 2305).

pIC50: −log10 of the molar value.

One may read the pIC50 as the IC50 on a negative log10 scale, so that one unit is a factor of ten. Higher therefore signals a low IC50. The compound `CC(C)NCc1ccc(-c2ccc(CN3CCCC(c4ccccc4)C3)cc2)c(C(=O)NCC2CCCCC2)c1` (stereo not drawn) gave a pIC50 of 6.14.
Next, `COc1ccccc1CNCC(O)c1cc(C(F)(F)F)ccc1C(F)(F)F` (stereo not drawn): 6.03.
The figure for `Cc1nc(C)c(CC(=O)Nc2ccc(-c3cccc(-c4nc5ccc(C(F)(F)F)cc5[nH]4)c3)cc2)s1` is 6.04; for `Cc1ccc(S(=O)(=O)c2nc(S(=O)(=O)c3ccccc3)sc2NCC2CCCO2)cc1` (stereo not drawn) it is 5.99.
The figure for `Cc1[nH]c(C)c(-c2ccc(Oc3ccc(C(F)(F)F)cc3)cc2)c(=O)c1Br` is 6.68.
For `CO/N=C(\C)c1ccc2c(c1)CCN(CCC1CCC(NC(=O)/C=C/c3ccc(F)cc3)CC1)CC2` (stereo not drawn), the pIC50 is 5.97.
Next, `O=C(Nc1ccc(F)cc1)NC1CCN(c2ccnc3cc(Cl)ccc23)CC1`: 6.39; `Cc1ccc(Cc2c(C)nc3nc(N)nc(N)c3c2C)cc1`: 6.62.
As for `O=c1cc(NC[C@H]2CCC[C@@H]2NC2CCCc3c2[nH]c2ccccc32)[nH]c2ccccc12` (stereo partly drawn), the pIC50 was 6.10.
The figure for `COc1cc(NC(=O)c2sc(-c3ccc(Cl)cc3)cc2NC(=O)c2cccnc2)ccc1OCCN1CCCC1` is 6.42.
Compound `CC(C)NCc1cc(Nc2ccnc3cc(Cl)ccc23)ccc1O` gave a pIC50 of 7.70.
Next, `O=C(Nc1cccc(CN2CCCN(Cc3ccc(O)cc3)CC2)c1)c1cc2ccccc2s1`: 6.44.
The figure for `N#CN1CC[C@@H](NS(=O)(=O)Cc2ccc(Cl)c(Cl)c2)C1` is 6.28; for `COc1cc(C(F)(F)F)c2cc(CNCCCNc3nc4ccccc4[nH]3)[nH]c2c1` it is 6.51.
For the compound `Cc1cc(OCC2CCCO2)c2cc(NC(=O)C(=O)Nc3ccc4nc(C)cc(OCC5CCCO5)c4c3)ccc2n1` (stereo not drawn), the pIC50 is 6.10.
The figure for `O=C(Nc1cccc2ccccc12)N1CCC(NS(=O)(=O)c2cccc(C(F)(F)F)c2)CC1` is 6.04.
Next, `CCC(C)NS(=O)(=O)c1ccc2nc(Nc3ccc(C)cc3)n(C3CCCCC3C)c2c1` (stereo not drawn): 6.23.
Next, `CCN1CCC(N(Cc2ccc(-c3ccc(C(F)(F)F)cc3)cc2)C(=O)Cn2c(SCc3cccc(F)c3F)cc(=O)c3ccccc32)C1` (stereo not drawn): 6.06; `Cc1cccc2[nH]c(-c3ccc(-c4cccc(CNCCNC(=O)c5ccnn5C)c4)s3)nc12`: 6.66; `CC(=O)Nc1ncc(C(=O)Nc2ccc(-c3cccc(-c4nc5ccc(F)cc5[nH]4)c3)cc2)s1`: 6.46.
In turn, `CCCCN(CCCC)CCNC(=O)c1cccc(NC(=O)N2CCc3cc(SC)c(C(F)(F)F)cc32)c1` showed a negative-log IC50 (pIC50) of 6.09.
Next, `Cc1cc(N[C@@H](Cc2ccccc2)C(=O)NCCCOC(C)C)nc(NCC2CCCCC2)n1`: 6.06.
Next, `Cc1ccc(C(CC(=O)Nc2nccs2)c2ccc(OC(C)C)cc2)cc1` (stereo not drawn): 6.32; `COc1ccc2nccc([C@@H](O)CN3CCC(NCCOc4cccc(F)c4F)CC3)c2c1`: 6.62; `N#Cc1ccc(N(CCOC(=O)c2ccc(Br)s2)Cc2ccccc2C(F)(F)F)cc1C(F)(F)F`: 5.97.
In turn, `CNC(=O)c1cc(S(=O)(=O)Nc2ccc(OC)cc2)cs1` showed a pIC50 of 5.95.
Next, `COc1cc(CCN(C)Cc2ccc(OC)c(OC)c2)ccc1NC(=O)c1cccc2c(=O)c3cccc(F)c3[nH]c12`: 6.70; `CC(C)N1CCN(c2ccc(OCCCCN3CCN(c4cccc(Cl)c4Cl)CC3)c(C(F)(F)F)c2)CC1`: 6.09; `CC(C)CNCc1cccc(-c2cccc(CN(CCCN3CCN(C)CC3)C(=O)CCC3CCCC3)c2)c1`: 6.21.
The figure for `COc1ccccc1NC(=O)Nc1cccc(-c2ccc(-c3nc4c(C)cccc4[nH]3)s2)c1` is 6.24; for `NC(N)=Nc1nc(-c2cccc(NC(=O)NCc3cccc4ccccc34)c2)cs1` it is 6.08.
In turn, `O=C(Cc1ccccc1)NC(Nc1ccc([N+](=O)[O-])cc1)C(Cl)(Cl)Cl` (stereo not drawn) had a pIC50 of 6.01.
The figure for `Cc1ccc2nc(C)cc(NC(=O)Nc3ccc(N(C)C)cc3)c2c1` is 6.27.
`COc1ccc2nccc([C@@H](O)CN3CC[C@H](NCc4nc5c(cc4F)SCC(=O)N5)[C@H](F)C3)c2c1` had a pIC50 of 6.14.
`O=C(Nc1cccc(-c2nc3ccccc3[nH]2)c1)c1cccc(NC(=O)c2ccco2)c1` had a negative-log IC50 (pIC50) of 6.44.
In turn, `Cc1cc(Nc2cc(Cl)cc(Cl)c2)nc(N)n1` showed a negative-log IC50 (pIC50) of 5.94.
The figure for `CN(Cc1cccc(C#N)c1)C1CCN(c2cc(NC(=O)c3ccc(F)cc3)ccn2)CC1` is 5.97.
Take `CC(=O)c1cccc(NC(=O)NC2CCN(c3ccnc(Nc4ccc(F)cc4)n3)C2)c1` (stereo not drawn): the pIC50 was 6.19.
Next, `CC(Cc1ccc(OCCCCOc2ccccc2)cc1)NCCc1ccccc1Cl` (stereo not drawn): 6.74; `c1ccc(C2CCC(N3CCC(N4CCCC4)CC3)CC2)cc1` (stereo not drawn): 6.17.
The figure for `COCCNCc1cccc(-c2ccc(CNC3CCN(Cc4ccccc4)CC3)cc2)c1` is 6.29.
Turning to `CN(C)CCNC(=O)[C@H](CC1CCCCC1)NC(=O)c1ccc(O)c(-c2ccc(Cl)c(Cl)c2)c1`, the negative logarithm of the IC50 (pIC50) was 6.11.
In turn, `O=C(/C=C/c1ccc(Cl)c(Cl)c1)NCCCCCN1CCC(c2cn[nH]c2-c2ccccc2)CC1` showed a pIC50 of 5.91.
Next, `Nc1nccc2ccc(-c3cccc(OCc4ccccc4)c3)cc12`: 6.54; `CCCCCCCCc1c(C)[nH]c(C)c(C#N)c1=O`: 6.40; `O=C(Nc1ccc(NC2=NCCN2)cc1)c1ccc(C(=O)Nc2ccc(NC3=NCCN3)cc2)cc1`: 6.19.
As for `O=C(N[C@@H](Cc1ccccc1)[C@H](O)CNCCC(F)(F)F)c1cccc(CCC2CC2)c1`, the pIC50 is 5.99.
The figure for `CN(C)C(CNc1ncnc2cc(Cl)ccc12)Cc1ccccc1` (stereo not drawn) is 6.06; for `O=C(Nc1ccsc1)Nc1cccc(-c2cccc(-c3nc4ccc(C(F)(F)F)cc4[nH]3)c2)c1` it is 6.82; for `COc1ccc2ncc(Cl)c([C@H](O)CN3CCC(NCc4cc5c(cn4)OCCO5)CC3)c2c1` it is 6.92.
The figure for `CC(C)COc1ccc(Cl)cc1Cc1ccc(-c2nc3ccc(CCN(C)C)cc3[nH]2)o1` is 6.01; for `CC(C)c1ccc(CN2CCCCC(NC(=O)c3cc(-c4ccccc4Cl)cs3)C2)cc1` (stereo not drawn) it is 5.95; for `CCNc1cc(C(=O)N[C@@H](Cc2ccccc2)[C@H](O)CNC(C)(C)Cc2cccc(Cl)c2)cc(N2CCCCS2(=O)=O)c1` it is 6.05.
Consider `Cc1ccc(N2C(=O)C3C(C2=O)[C@]2(c4ccccc4)C(=O)[C@@]3(c3ccccc3)C(c3ccccc3)=C2c2ccccc2)cc1` (stereo partly drawn), for which the negative logarithm of the IC50 (pIC50) is 6.06.
Regarding `CCOc1ccc(-c2nonc2NC(=O)c2ccccc2)cc1OCC`, the negative-log IC50 (pIC50) is 6.59.
Next, `CCOC(=O)c1ccc(NC(=O)Nc2ccc(-c3ccc(-c4nc5ccccc5[nH]4)cc3)cc2)cc1`: 7.70.
In the case of `Fc1cccc(Nc2nc(NCc3ccc(OCc4ccccc4)cc3)nc(Nc3cccc(F)c3)n2)c1`, the pIC50 was 5.93.
For `CC(C)Cc1nc2nc(N)nc(N)c2cc1C(C)C`, the pIC50 is 6.64.
Next, `Cc1[nH]c2ccccc2c1C=NNc1nc(Nc2ccccc2)nc(Nc2ccccc2)n1`: 6.03.
The figure for `O=C(NCCc1cccc(F)c1)c1cc(Br)cc(N2CCN(c3ccncc3)CC2)c1` is 6.12; for `COc1ccc2ccccc2c1CNCC1CCN(CC2CCCCC2)CC1` it is 6.12; for `Cc1cc(NN=Cc2ccccc2[N+](=O)[O-])c2cc(C(F)(F)F)ccc2n1` it is 6.12.
Next, `CCCc1cc(Cc2cnc(N)nc2N)cc(CC)c1OC`: 6.09.
`O=C(Nc1ccc(C(F)(F)F)cc1)N[C@H]1CCN(CCCCCNC(=O)[C@@H]2C[C@H]2c2ccc(Cl)c(Cl)c2)C1` showed a pIC50 of 5.96.
Turning to `CC(Cc1ccc(C(=O)Nc2ccc(CC(C)NCCc3cccc(Cl)c3)cc2)cc1)NCCc1ccc(C(F)(F)F)cc1` (stereo not drawn), the pIC50 was 6.24.
The figure for `COc1ccc(Nc2nccc(N3CCC(NC(=O)c4cc5ccccc5s4)C3)n2)cc1` (stereo not drawn) is 6.12.
Next, `COc1ccc(CC2(c3ccc(F)cc3)N=C(N)N(CCCc3cccnc3)C2=O)cc1` (stereo not drawn): 6.17; `Cc1ccc(CN2CCCN(Cc3cccc(NC(=O)c4cc5ccccc5s4)c3)CC2)cc1`: 5.92; `C=CCc1cc(Br)ccc1OCCCOc1c(N)nc(N)nc1N`: 6.72.
Next, `Nc1c2ccccc2nc2cc(Cl)ccc12`: 6.15.
`CCOC(=O)c1c(CNc2ccncc2)n(C)c2cc(Br)c(OC(C)=O)cc12` had a pIC50 of 6.43.
Regarding `CCN(CC)CCCC(C)Nc1c(-c2ccc(C)cc2)cnc2ccccc12` (stereo not drawn), the pIC50 was 6.70.
The figure for `CCCCCCCSc1ccc(CC(C)NCC(O)c2cccc(Cl)c2)cc1` (stereo not drawn) is 6.74; for `O=C(NC(=Cc1cccc([N+](=O)[O-])c1)c1nc2ccccc2[nH]1)c1cccc(Br)c1` it is 6.21.
The figure for `O=C(Nc1ccc(Cl)cc1)Nc1ccc2nonc2c1` is 5.96; for `Cc1[nH]c(C)c(-c2ccc(C#Cc3ccc(F)cc3F)cc2)c(=O)c1Br` it is 7.52.
The figure for `Fc1ccc(COc2ccc(Nc3ncnc4ccc(I)cc34)cc2Cl)cc1` is 5.93.
In turn, `O=C(NCC(NCCCNc1cc(=O)c2ccccc2[nH]1)c1cc(Br)cc(Br)c1)C1=CCCC1` (stereo not drawn) had a negative logarithm of the IC50 (pIC50) of 6.05.
Take `CC(C)Oc1cccc(-c2ccc(C(=O)NCC3CCCN(Cc4cccc(C(F)(F)F)c4)C3)s2)c1` (stereo not drawn): the pIC50 is 5.97.
As for `O=C(Nc1ccc(OC2CCN(Cc3ccc(F)cc3)CC2)c(Cl)c1)c1ccoc1`, the negative-log IC50 (pIC50) is 5.93.
The figure for `O=C(Nc1nc(-c2ccccn2)cs1)c1ccc(S(=O)(=O)N2CCc3ccccc32)cc1` is 6.08; for `CC(C)N1CCCN(C(=O)C2CCN(c3ccc(C(=O)N4CCCC4)cn3)CC2)CC1` it is 5.97; for `Cc1cccc2[nH]c(-c3cccc(-c4cccc(NC(=O)c5cnc[nH]5)c4)c3)nc12` it is 6.59.
On to `CCNc1cc(C(=O)N[C@@H](Cc2ccccc2)[C@H](O)CNC2CCCC2)cc(N2CCCC2=O)c1`, for which the pIC50 was 7.10.
Next, `Clc1ccc(CNCC2CCN(CC3CCCCC3)CC2)cc1Cl`: 6.00; `COc1ccc(CC(Cc2ccc(OC)cc2)NCC(O)c2cccc(Cl)c2)cc1` (stereo not drawn): 6.80.
Compound `OCCN1CCN(C(=S)Nc2ccccc2)CC1` showed a pIC50 of 6.03.
Compound `Cc1cc(=O)[nH]c(/N=C(/N)NOCc2ccccc2)n1` showed a pIC50 of 6.38.
